Measured values: patent publication US7179819B2, “VLA-4 inhibitor compounds” (Daiichi Pharmaceutical Co., Ltd., priority 1999, dated 2007)
Where a name gives a salt, the structure may show the parent alone.

Assays:
eosinophil infiltration [1] = assay: Eosinophil accumulation model in the rat (Compound 48/80 injected into pleural cavities); format: in vivo, male Sprague Dawley rats; conditions: b.i.d. at 0 and 8 hours
Experimental: The compounds of the present invention may also be further characterized in other in vivo assays, such as the eosioophil accumulation model tested in the rat. Fifty μg of Compound 48/80 was injected into the pleural cavities of male Sprague Dawley rats. After 24 hrs, each cavity was washed twice with Hank's Balanced Salt Solution containing 0.2% EDTA. Total cell and eosinophil counts were determined. Test compounds were given intraveneously, orally or subcutaneously, b.i.d. at 0 and 8 hours.

[2] = Mouse bio-assay: serum concentration after oral dosing, determined by direct binding assay of diluted serum; conditions: 10 mg/kg; for concentration at 15 min: female, Balb/c, serum, po
Experimental: (§1) A compound was dissolved or suspended with an appropriate solvent at 1 mg/mL. Female Balb/c mice (7–9 weeks old) were given the compound orally. Blood samples were collected from the postcaval vein of the anesthetized mice after fifteen minutes. Serum was prepared and stored at −20° C. Serum concentration of the compound was determined from inhibitory activities of the diluted serum by a direct binding assay using VLA-4-expressing cells and VCAM-IgG fusion protein. Serum concentration determined by this method correlated well with the concentration determined by LC/MS/MS methodologies.

[3] = Pharmacokinetic evaluation in mouse; format: in vivo; conditions: for AUC (total area under the plasma concentration versus time curve): LC/MS/MS; for clearance / MRT: plasma; for clearance: read-out: CL (apparent plasma clearance); for MRT: read-out: MRT (mean residence time)
eosinophil infiltration [4] = assay: Murine model of Ascaris-induced bronchial inflammation: eosinophil infiltration into bronchoalveolar lavage fluid; format: in vivo; conditions: mouse
Experimental: The VLA-4 inhibitors may be further characterized in in vivo assays. One such assay examines the inhibition of eosinophil infiltration into the bronchoalveolar lavage fluid in the mouse (murine) model. In this assay, the animals are treated with cyclophosphamide on day 0. On days 2 and 14, the animals are immunized intraperitoneally with Ascaris suum extract. Seven days later, the animals are treated with various doses of the VLA-4 inhibitor. Shortly after drug administration, the animals are challenged with Ascaris suum extract by instillation into the trachea. Bronchoalveolar lavage of the animal is performed by instilling saline into the lung, 48 hours later. Total cell and eosinophil counts in the lavage are determined.

[5] = Pharmacokinetic evaluation in rat; format: in vivo; conditions: for AUC (total area under the plasma concentration versus time curve): LC/MS/MS; for clearance / MRT: plasma, 10 mg/kg; for clearance: read-out: CL (apparent plasma clearance); for MRT: read-out: MRT (mean residence time)
in vivo [6] = conditions: female, Balb/c, mouse, po, 10 mg/kg
Experimental: as §1

[7] = Pharmacokinetic evaluation in monkey, single intravenous dosage; conditions: single intravenous dosage (2 mg/kg), LC/MS/MS
in vivo [8] = conditions: monkey, 2 mg/kg
VLA-4-expressing cells = conditions: Wang et al. 1995; cited from earlier work
[9] = tested on: accelerated coronary arteriopathy; conditions: Molossi et al. 1995; cited from earlier work
[10] = tested on: VLA-4-mediated lymphocyte adherence; conditions: Molossi et al. 1995; cited from earlier work
[11] = iv, 10 mg/kg, 10 mg/kg (i.v.), line of AUC 0–6 hr
[12] = iv, 10 mg/kg, 10 mg/kg (i.v.), line of AUC 0–∞
[13] = 10 mg/kg (p.o.), line of AUC 0–6 hr
[14] = 10 mg/kg (p.o.), line of AUC 0–∞
[15] = iv, 10 mg/kg (i.v.), line of AUC 0–6 hr
[16] = iv, 10 mg/kg (i.v.), line of AUC 0–∞

Q: Which results are given for `Cc1cc(CC(=O)N2C[C@@H](F)C[C@H]2COc2ccc(C(=O)O)cc2)ccc1NC(=O)Nc1ccccc1Br` [Compound 80, 4-[1-[4-[N′-(2-bromophenyl)ureido]-3-methylphenylacetyl]-(4S)-fluoro-(2S)-pyrrolidinyl]methoxybenzoic acid]?
A: % Inhibition of Eosinophil Infiltration (eosinophil infiltration [1]; 50 mg/kg 2 days, s.c.): 65.3%; concentration at 15 min [2]: 693 ng/mL; AUC (total area under the plasma concentration versus time curve) ([3]; 10 mg/kg (i.v.), 0–6 hr): 5259 (0–6 hr) ng · h/mL; AUC (total area under the plasma concentration versus time curve) ([3]; 10 mg/kg (i.v.), 0–∞): 5389 (0–∞) ng · h/mL; AUC (total area under the plasma concentration versus time curve) ([3]; 20 mg/kg (p.o.), 0–6 hr): 2190 (0–6 hr) ng · h/mL; AUC (total area under the plasma concentration versus time curve) ([3]; 20 mg/kg (p.o.), 0–∞): 3615 (0–∞) ng · h/mL; CL (apparent plasma clearance) ([3]; 20 mg/kg (p.o.), line of AUC 0–6 hr): 152.24 mL/min/kg; CL (apparent plasma clearance) ([3]; 20 mg/kg (p.o.), line of AUC 0–∞): 92.21 mL/min/kg; clearance [3, 11]: 31.7 mL/min/kg; MRT [3, 11]: 0.4 h; clearance [3, 12]: 30.9 mL/min/kg; MRT [3, 12]: 0.6 h; MRT ([3]; po, 20 mg/kg, 20 mg/kg (p.o.), line of AUC 0–6 hr): 2.3 h; MRT ([3]; po, 20 mg/kg, 20 mg/kg (p.o.), line of AUC 0–∞): 6.5 h

Q: Which “% Inhibition of Eosinophil Infiltration” value (eosinophil infiltration [4]; 10 mg/kg t.i.d. × 2 days, p.o.) does the source give for `Cc1ccccc1NC(=O)Nc1ccc(CC(=O)N2C[C@@H](F)C[C@H]2COc2ccc(C(=O)O)cc2)cc1Cl` [Compound 90, 4-[1-[3-chloro-4-[N′-(2-methylphenyl)ureido]phenylacetyl]-(4S)-fluoro-(2S)-pyrrolidinyl]methoxybenzoic acid] here?
A: 18.1%

Q: What about the “% Inhibition of Eosinophil Infiltration” value (eosinophil infiltration [4]; 30 mg/kg b.i.d. × 2 days, i.v.) of the same compound?
A: 47.3%

Q: And the “% Inhibition of Eosinophil Infiltration” value (eosinophil infiltration [4]; 30 mg/kg t.i.d. × 2 days, p.o.)?
A: 39.1%

Q: What about the “% Inhibition of Eosinophil Infiltration” value (eosinophil infiltration [4]; 50 mg/kg t.i.d. × 2 days, p.o.) of the same compound?
A: 45.9%

Q: What about the “% Inhibition of Eosinophil Infiltration” value (eosinophil infiltration [1]; 3 mg/kg 2 days, i.v.) of the same compound?
A: 25.4%

Q: And the “% Inhibition of Eosinophil Infiltration” value (eosinophil infiltration [1]; 10 mg/kg 2 days, i.v.)?
A: 46.7%

Q: What about the “% Inhibition of Eosinophil Infiltration” value (eosinophil infiltration [1]; 30 mg/kg 2 days, i.v.) of the same compound?
A: 83.7%

Q: What about the “% Inhibition of Eosinophil Infiltration” value (eosinophil infiltration [1]; 50 mg/kg 2 days, p.o.) of the same compound?
A: 50.5%

Q: And the “Serum Concentration” value ([2]; oral, 15 minutes post-administration)?
A: 3659 ng/mL

Q: What about the “AUC (total area under the plasma concentration versus time curve)” value ([5]; 10 mg/kg (i.v.), 0–6 hr) of the same compound?
A: 31915 (0–6 hr) ng · h/mL

Q: What about the “AUC (total area under the plasma concentration versus time curve)” value ([5]; 10 mg/kg (i.v.), 0–∞) of the same compound?
A: 33488 (0–∞) ng · h/mL

Q: What about the “AUC (total area under the plasma concentration versus time curve)” value ([5]; 10 mg/kg (p.o.), 0–6 hr) of the same compound?
A: 11454 (0–6 hr) ng · h/mL

Q: What about the “AUC (total area under the plasma concentration versus time curve)” value ([5]; 10 mg/kg (p.o.), 0–∞) of the same compound?
A: 19968 (0–∞) ng · h/mL

Q: What about the “CL (apparent plasma clearance)” value [5, 13] of the same compound?
A: 17.85 mL/min/kg

Q: What about the “CL (apparent plasma clearance)” value [5, 14] of the same compound?
A: 9.99 mL/min/kg

Q: And the clearance [5, 15]?
A: 5.23 mL/min/kg

Q: And the MRT [5, 15]?
A: 0.8 h

Q: And the clearance [5, 16]?
A: 4.98 mL/min/kg

Q: And the MRT [5, 16]?
A: 1.1 h

Q: What about the MRT ([5]; po, 10 mg/kg (p.o.), line of AUC 0–6 hr) of the same compound?
A: 1.7 h

Q: What about the MRT ([5]; po, 10 mg/kg (p.o.), line of AUC 0–∞) of the same compound?
A: 8.8 h

Q: And the “AUC (total area under the plasma concentration versus time curve)” value ([3]; 10 mg/kg (i.v.), 0–6 hr)?
A: 8995 (0–6 hr) ng · h/mL

Q: What about the “AUC (total area under the plasma concentration versus time curve)” value ([3]; 10 mg/kg (i.v.), 0–∞) of the same compound?
A: 9219 (0–∞) ng · h/mL

Q: What about the “AUC (total area under the plasma concentration versus time curve)” value ([3]; 10 mg/kg (p.o.), 0–6 hr) of the same compound?
A: 2540 (0–6 hr) ng · h/mL

Q: What about the “AUC (total area under the plasma concentration versus time curve)” value ([3]; 10 mg/kg (p.o.), 0–∞) of the same compound?
A: 2950 (0–∞) ng · h/mL

Q: What about the “CL (apparent plasma clearance)” value [3, 13] of the same compound?
A: 65.62 mL/min/kg

Q: What about the “CL (apparent plasma clearance)” value [3, 14] of the same compound?
A: 56.50 mL/min/kg

Q: And the clearance [3, 11]?
A: 18.5 mL/min/kg

Q: What about the MRT [3, 11] of the same compound?
A: 0.5 h

Q: What about the clearance [3, 12] of the same compound?
A: 18.1 mL/min/kg

Q: And the MRT [3, 12]?
A: 0.7 h

Q: What about the MRT ([3]; po, 10 mg/kg, 10 mg/kg (p.o.), line of AUC 0–6 hr) of the same compound?
A: 1.2 h

Q: And the MRT ([3]; po, 10 mg/kg, 10 mg/kg (p.o.), line of AUC 0–∞)?
A: 2.5 h

Q: With `O=C(Nc1ccc(CC(=O)N2C[C@@H](F)C[C@H]2COc2ccc(C(=O)O)cc2)cc1Cl)Nc1ccccc1Br` [Compound 92, 4-[1-[4-[N′-(2-bromophenyl)ureido]-3-chlorophenylacetyl]-(4S)-fluoro-(2S)-pyrrolidinyl]methoxybenzoic acid] as the compound, how does the “% Inhibition of Eosinophil Infiltration” value (eosinophil infiltration [1]; 50 mg/kg 2 days, s.c.) read?
A: 43.1%

Q: And the concentration at 15 min [2]?
A: 2160 ng/mL

Q: With `COC(=O)c1ccc(OC[C@@H]2C[C@@H](N(C)C)CN2C(=O)Cc2ccc(NC(=O)Nc3ccccc3C)c(OC)c2)cc1` [Compound 156, methyl 4-[trans-4-dimethylamino-1-[3-methoxy-4-[N′-(2-methylphenyl)ureido]phenylacetyl]-(2S)-pyrrolidinyl]methoxybenzoate HCl salt] as the compound, how does the concentration at 15 min (in vivo [6]) read?
A: 285 ng/mL

Q: Which “AUC (total area under the plasma concentration versus time curve)” value [7] does the source give for `COc1cc(CC(=O)N2CC(O)C(O)C2C(=O)N2CCN(CC(=O)O)CC2)ccc1NC(=O)Nc1ccccc1C` (stereo not shown) [Compound 195] here?
A: 8405 ng·h/mL

Q: What about the clearance (in vivo [8]; plasma, iv) of the same compound?
A: 4 mL/min/kg

Q: And the concentration at 5 min (in vivo [8]; serum, intravenous)?
A: 65400 ng/mL

Q: And the concentration at 30 min (in vivo [8]; serum, intravenous)?
A: 3900 ng/mL

Q: What about the concentration at 1 hr (in vivo [8]; serum, intravenous) of the same compound?
A: 2220 ng/mL

Q: And the concentration at 2 hr (in vivo [8]; serum, intravenous)?
A: 772 ng/mL

Q: And the concentration at 4 hr (in vivo [8]; serum, intravenous)?
A: 194 ng/mL

Q: And the concentration at 8 hr (in vivo [8]; serum, intravenous)?
A: 28 ng/mL

Q: With CQIDSPC [Synthetic VCAM-1 peptide] as the compound, how does the “adhesion of VLA-4-expressing cells to purified VCAM-1” value (VLA-4-expressing cells) read?
A: inhibit the adhesion

Q: With “phenylacetic acid-Leu-Asp-Phe-d-Pro-amide” as the compound, how does the “accelerated coronary arteriopathy in rabbit cardiac allografts” value [9] read?
A: reduced

Q: And the “VLA-4-mediated lymphocyte adherence in vitro” value [10]?
A: inhibited
